Tests used:
[1] = tested on: Tyrosine-protein kinase ABL1 (Homo sapiens), P00519 [H396P]; details: Compound concentration 1000.0 nM
[2] = molecular target: Atypical kinase COQ8B, mitochondrial (Homo sapiens) (UniProt Q96D53); details: Compound concentration 1000.0 nM
[3] = molecular target: NUAK family SNF1-like kinase 1 (Homo sapiens) (UniProt O60285); details: Compound concentration 1000.0 nM
[4] = molecular target: Tyrosine-protein kinase receptor UFO (Homo sapiens) (UniProt P30530); details: Compound concentration 1000.0 nM
[5] = molecular target: Protein-tyrosine kinase 6 (Homo sapiens) (UniProt Q13882); details: Compound concentration 1000.0 nM
Chain of Protein-tyrosine kinase 6 (Homo sapiens) (Q13882 whole entry, looked up): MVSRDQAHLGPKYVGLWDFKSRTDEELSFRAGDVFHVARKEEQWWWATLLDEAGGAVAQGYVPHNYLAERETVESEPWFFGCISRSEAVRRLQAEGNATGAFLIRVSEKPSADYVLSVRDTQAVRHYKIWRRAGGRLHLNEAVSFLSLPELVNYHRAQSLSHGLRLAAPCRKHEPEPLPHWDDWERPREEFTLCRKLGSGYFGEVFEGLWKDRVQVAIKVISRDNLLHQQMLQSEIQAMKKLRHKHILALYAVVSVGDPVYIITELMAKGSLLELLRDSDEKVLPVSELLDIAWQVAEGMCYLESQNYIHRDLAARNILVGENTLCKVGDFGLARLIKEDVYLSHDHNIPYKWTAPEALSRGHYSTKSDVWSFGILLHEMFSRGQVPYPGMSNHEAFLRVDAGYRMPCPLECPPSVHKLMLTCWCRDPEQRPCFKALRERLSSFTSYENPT

[6] = molecular target: Calcium/calmodulin-dependent protein kinase type IV (Homo sapiens) (UniProt Q16566); details: Compound concentration 1000.0 nM
[7] = molecular target: Cyclin-dependent kinase 2 (Homo sapiens) (UniProt P24941); details: Compound concentration 1000.0 nM
[8] = molecular target: Dual specificity protein kinase CLK4 (Homo sapiens) (UniProt Q9HAZ1); details: Compound concentration 1000.0 nM
[9] = molecular target: Epidermal growth factor receptor (Homo sapiens) (UniProt P00533); details: Compound concentration 1000.0 nM
[10] = tested on: Epidermal growth factor receptor (Homo sapiens), P00533 [UNDEFINED MUTATION]; details: Compound concentration 1000.0 nM
[11] = tested on: Epidermal growth factor receptor (Homo sapiens), P00533 [L861Q]; details: Compound concentration 1000.0 nM
[12] = molecular target: Ephrin type-A receptor 6 (Homo sapiens) (UniProt Q9UF33); details: Compound concentration 1000.0 nM
[13] = tested on: Receptor-type tyrosine-protein kinase FLT3 (Homo sapiens), P36888 [D835V]; details: Compound concentration 1000.0 nM
[14] = tested on: Receptor-type tyrosine-protein kinase FLT3 (Homo sapiens), P36888 [N841I]; details: Compound concentration 1000.0 nM
[15] = molecular target: Homeodomain-interacting protein kinase 4 (Homo sapiens) (UniProt Q8NE63); details: Compound concentration 1000.0 nM
[16] = molecular target: Mitogen-activated protein kinase kinase kinase kinase 1 (Homo sapiens) (UniProt Q92918); details: Compound concentration 1000.0 nM
Chain of Mitogen-activated protein kinase kinase kinase kinase 1 (Homo sapiens) (Q92918 whole entry, looked up): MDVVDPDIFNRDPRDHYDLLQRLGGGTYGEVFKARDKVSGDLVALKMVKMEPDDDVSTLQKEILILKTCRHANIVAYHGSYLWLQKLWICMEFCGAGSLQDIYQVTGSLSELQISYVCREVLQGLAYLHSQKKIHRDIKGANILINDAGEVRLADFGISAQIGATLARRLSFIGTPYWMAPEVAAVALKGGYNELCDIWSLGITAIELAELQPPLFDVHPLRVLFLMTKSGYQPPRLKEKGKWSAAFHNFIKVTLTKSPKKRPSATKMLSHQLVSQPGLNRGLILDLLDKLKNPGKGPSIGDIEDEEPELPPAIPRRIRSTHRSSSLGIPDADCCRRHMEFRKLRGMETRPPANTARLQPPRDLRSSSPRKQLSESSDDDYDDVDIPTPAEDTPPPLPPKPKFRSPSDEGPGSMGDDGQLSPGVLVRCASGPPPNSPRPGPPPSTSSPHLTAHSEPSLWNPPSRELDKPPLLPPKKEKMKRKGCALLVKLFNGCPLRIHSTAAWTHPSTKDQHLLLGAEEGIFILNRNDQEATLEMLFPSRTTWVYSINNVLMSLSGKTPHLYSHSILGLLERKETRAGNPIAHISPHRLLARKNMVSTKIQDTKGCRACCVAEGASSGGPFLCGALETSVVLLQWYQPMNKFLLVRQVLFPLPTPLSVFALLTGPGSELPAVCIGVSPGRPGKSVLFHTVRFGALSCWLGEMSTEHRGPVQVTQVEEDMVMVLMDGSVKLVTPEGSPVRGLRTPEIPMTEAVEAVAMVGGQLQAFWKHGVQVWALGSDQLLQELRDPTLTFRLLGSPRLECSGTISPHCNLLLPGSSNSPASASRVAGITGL

[17] = tested on: Mast/stem cell growth factor receptor Kit (Homo sapiens), P10721 [V559D,V654A]; details: Compound concentration 1000.0 nM
[18] = molecular target: Serine/threonine-protein kinase LATS2 (Homo sapiens) (UniProt Q9NRM7); details: Compound concentration 1000.0 nM
[19] = molecular target: LIM domain kinase 2 (Homo sapiens) (UniProt P53671); details: Compound concentration 1000.0 nM
[20] = molecular target: Mitogen-activated protein kinase kinase kinase 2 (Homo sapiens) (UniProt Q9Y2U5); details: Compound concentration 1000.0 nM
Chain of Mitogen-activated protein kinase kinase kinase 2 (Homo sapiens) (Q9Y2U5 whole entry): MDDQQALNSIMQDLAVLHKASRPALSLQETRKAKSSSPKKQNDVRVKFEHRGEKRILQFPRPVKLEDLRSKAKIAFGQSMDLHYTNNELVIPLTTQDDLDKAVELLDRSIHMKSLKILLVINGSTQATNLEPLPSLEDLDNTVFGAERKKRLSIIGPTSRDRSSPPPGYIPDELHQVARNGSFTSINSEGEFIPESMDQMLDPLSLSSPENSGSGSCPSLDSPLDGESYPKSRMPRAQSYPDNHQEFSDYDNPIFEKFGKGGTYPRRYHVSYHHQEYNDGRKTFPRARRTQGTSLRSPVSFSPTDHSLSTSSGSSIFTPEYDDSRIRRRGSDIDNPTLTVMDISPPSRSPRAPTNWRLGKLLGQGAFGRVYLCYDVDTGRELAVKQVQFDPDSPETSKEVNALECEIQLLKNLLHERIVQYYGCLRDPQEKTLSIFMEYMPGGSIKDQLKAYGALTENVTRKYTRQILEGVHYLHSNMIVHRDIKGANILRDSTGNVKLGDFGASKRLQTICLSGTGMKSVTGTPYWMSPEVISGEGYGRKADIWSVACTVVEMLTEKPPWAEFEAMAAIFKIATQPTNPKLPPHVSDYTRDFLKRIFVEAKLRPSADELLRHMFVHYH

[21] = molecular target: Mitogen-activated protein kinase kinase kinase kinase 3 (Homo sapiens) (UniProt Q8IVH8); details: Compound concentration 1000.0 nM
[22] = molecular target: MAP/microtubule affinity-regulating kinase 3 (Homo sapiens) (UniProt P27448); details: Compound concentration 1000.0 nM
[23] = molecular target: Dual specificity mitogen-activated protein kinase kinase 3 (Homo sapiens) (UniProt P46734); details: Compound concentration 1000.0 nM
[24] = molecular target: Dual specificity mitogen-activated protein kinase kinase 4 (Homo sapiens) (UniProt P45985); details: Compound concentration 1000.0 nM
[25] = molecular target: Misshapen-like kinase 1 (Homo sapiens) (UniProt Q8N4C8); details: Compound concentration 1000.0 nM
[26] = molecular target: Dual specificity mitogen-activated protein kinase kinase 7 (Homo sapiens) (UniProt O14733); details: Compound concentration 1000.0 nM
[27] = molecular target: MAP kinase-interacting serine/threonine-protein kinase 1 (Homo sapiens) (UniProt Q9BUB5); details: Compound concentration 1000.0 nM
[28] = molecular target: Serine/threonine-protein kinase OSR1 (Homo sapiens) (UniProt O95747); details: Compound concentration 1000.0 nM
Chain of Serine/threonine-protein kinase OSR1 (Homo sapiens) (O95747 2-527 limits assumed): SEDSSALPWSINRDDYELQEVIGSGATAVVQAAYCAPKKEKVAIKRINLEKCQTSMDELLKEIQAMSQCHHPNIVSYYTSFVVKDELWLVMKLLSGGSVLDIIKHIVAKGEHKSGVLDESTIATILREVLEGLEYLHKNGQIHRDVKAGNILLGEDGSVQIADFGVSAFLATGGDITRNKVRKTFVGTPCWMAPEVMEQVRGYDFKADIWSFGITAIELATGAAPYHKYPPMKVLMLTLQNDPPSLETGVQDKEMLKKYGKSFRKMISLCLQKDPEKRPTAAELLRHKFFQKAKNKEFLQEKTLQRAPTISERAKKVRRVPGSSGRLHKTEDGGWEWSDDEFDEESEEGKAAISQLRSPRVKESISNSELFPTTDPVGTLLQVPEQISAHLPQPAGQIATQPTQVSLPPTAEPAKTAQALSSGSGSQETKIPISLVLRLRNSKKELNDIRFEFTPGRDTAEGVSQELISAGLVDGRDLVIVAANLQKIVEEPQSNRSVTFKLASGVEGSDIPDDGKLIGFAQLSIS

[29] = molecular target: Mitogen-activated protein kinase 14 (Homo sapiens) (UniProt Q16539); details: Compound concentration 1000.0 nM
Chain of Mitogen-activated protein kinase 14 (Homo sapiens) (Q16539 whole entry): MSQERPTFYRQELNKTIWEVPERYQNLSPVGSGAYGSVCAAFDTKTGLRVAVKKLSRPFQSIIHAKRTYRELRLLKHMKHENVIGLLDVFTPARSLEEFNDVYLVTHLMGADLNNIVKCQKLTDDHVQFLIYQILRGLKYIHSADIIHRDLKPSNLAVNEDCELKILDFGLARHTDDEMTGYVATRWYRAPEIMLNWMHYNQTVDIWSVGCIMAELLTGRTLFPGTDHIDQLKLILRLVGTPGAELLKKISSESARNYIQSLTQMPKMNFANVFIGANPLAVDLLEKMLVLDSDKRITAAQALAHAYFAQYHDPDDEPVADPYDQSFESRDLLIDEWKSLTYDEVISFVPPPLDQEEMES

[30] = molecular target: Serine/threonine-protein kinase PAK 2 (Homo sapiens) (UniProt Q13177); details: Compound concentration 1000.0 nM
Chain of Serine/threonine-protein kinase PAK 2 (Homo sapiens) (Q13177 whole entry): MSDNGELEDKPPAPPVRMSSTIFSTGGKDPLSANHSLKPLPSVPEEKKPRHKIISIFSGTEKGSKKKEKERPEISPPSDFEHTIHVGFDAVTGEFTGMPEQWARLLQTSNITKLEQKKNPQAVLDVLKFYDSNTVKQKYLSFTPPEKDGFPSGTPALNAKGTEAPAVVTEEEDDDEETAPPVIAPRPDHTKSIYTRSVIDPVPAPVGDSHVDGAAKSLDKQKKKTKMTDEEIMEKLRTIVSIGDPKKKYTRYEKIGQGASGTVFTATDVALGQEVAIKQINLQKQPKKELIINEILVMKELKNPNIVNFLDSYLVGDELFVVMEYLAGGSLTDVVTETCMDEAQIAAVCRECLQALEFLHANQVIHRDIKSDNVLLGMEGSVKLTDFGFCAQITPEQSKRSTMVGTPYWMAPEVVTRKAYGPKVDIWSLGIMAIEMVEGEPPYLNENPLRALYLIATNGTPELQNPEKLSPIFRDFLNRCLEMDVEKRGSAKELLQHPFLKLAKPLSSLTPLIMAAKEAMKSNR

[31] = molecular target: Cyclin-dependent kinase 18 (Homo sapiens) (UniProt Q07002); details: Compound concentration 1000.0 nM
Chain of Cyclin-dependent kinase 18 (Homo sapiens) (Q07002 whole entry, canonical isoform): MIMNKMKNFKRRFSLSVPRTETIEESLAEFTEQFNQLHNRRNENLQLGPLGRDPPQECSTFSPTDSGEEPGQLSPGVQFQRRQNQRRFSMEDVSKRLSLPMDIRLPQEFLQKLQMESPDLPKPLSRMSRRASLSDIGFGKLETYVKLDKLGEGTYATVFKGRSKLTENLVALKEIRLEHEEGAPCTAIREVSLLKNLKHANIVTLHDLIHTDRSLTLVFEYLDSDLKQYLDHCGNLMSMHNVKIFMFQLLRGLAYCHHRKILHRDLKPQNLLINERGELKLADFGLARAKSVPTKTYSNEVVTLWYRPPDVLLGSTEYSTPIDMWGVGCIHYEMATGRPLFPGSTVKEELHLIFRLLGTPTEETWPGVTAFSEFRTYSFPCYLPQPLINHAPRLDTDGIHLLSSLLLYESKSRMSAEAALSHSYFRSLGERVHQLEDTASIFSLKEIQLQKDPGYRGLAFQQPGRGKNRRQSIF

[32] = tested on: Phosphatidylinositol 4,5-bisphosphate 3-kinase catalytic subunit alpha isoform (Homo sapiens), P42336 [H1047Y]; details: Compound concentration 1000.0 nM
[33] = molecular target: Phosphatidylinositol 4-kinase beta (Homo sapiens) (UniProt Q9UBF8); details: Compound concentration 1000.0 nM
Chain of Phosphatidylinositol 4-kinase beta (Homo sapiens) (Q9UBF8 2-816 limits assumed): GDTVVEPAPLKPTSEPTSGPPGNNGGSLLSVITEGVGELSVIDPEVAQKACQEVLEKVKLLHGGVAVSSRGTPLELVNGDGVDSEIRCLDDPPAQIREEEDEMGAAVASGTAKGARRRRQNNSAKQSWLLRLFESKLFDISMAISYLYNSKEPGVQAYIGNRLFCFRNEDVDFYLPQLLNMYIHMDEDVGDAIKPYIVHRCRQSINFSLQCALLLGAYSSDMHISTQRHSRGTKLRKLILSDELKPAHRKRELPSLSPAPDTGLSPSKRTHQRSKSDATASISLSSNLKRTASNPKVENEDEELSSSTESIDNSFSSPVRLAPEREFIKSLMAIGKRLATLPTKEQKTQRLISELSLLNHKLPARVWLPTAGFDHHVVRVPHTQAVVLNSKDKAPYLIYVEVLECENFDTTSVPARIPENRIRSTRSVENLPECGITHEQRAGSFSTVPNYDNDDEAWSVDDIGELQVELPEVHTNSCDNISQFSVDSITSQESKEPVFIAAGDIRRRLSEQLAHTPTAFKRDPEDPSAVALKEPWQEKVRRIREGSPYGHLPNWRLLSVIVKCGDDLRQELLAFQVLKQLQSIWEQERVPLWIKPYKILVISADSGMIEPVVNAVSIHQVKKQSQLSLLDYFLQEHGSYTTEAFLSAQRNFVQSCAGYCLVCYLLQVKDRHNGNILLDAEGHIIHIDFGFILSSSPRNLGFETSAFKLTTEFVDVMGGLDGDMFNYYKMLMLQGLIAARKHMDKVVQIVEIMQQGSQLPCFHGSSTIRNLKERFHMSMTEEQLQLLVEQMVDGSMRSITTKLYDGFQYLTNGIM

[34] = molecular target: cAMP-dependent protein kinase catalytic subunit beta (Homo sapiens) (UniProt P22694); details: Compound concentration 1000.0 nM
[35] = molecular target: Protein-tyrosine kinase 2-beta (Homo sapiens) (UniProt Q14289); details: Compound concentration 1000.0 nM
[36] = molecular target: Ribosomal protein S6 kinase alpha-1 (Homo sapiens) (UniProt Q15418); details: Compound concentration 1000.0 nM
[37] = molecular target: Dual specificity protein kinase TTK (Homo sapiens) (UniProt P33981); details: Compound concentration 1000.0 nM
[38] = molecular target: Tyrosine-protein kinase receptor TYRO3 (Homo sapiens) (UniProt Q06418); details: Compound concentration 1000.0 nM
[39] = molecular target: Serine/threonine-protein kinase WNK4 (Homo sapiens) (UniProt Q96J92); details: Compound concentration 1000.0 nM
[40] = molecular target: Serine/threonine-protein kinase 32A (Homo sapiens) (UniProt Q8WU08); details: Compound concentration 1000.0 nM
Chain of Serine/threonine-protein kinase 32A (Homo sapiens) (Q8WU08 whole entry): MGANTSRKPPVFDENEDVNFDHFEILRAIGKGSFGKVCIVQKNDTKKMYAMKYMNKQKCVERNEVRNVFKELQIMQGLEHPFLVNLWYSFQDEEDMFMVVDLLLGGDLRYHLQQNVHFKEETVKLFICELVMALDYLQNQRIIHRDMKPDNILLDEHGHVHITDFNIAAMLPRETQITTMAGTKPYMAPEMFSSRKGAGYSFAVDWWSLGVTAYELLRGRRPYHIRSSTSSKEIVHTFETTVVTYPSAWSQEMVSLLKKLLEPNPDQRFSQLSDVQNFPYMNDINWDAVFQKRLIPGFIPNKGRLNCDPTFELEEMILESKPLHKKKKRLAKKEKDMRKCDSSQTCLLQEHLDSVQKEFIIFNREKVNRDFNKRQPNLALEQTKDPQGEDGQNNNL

[41] = molecular target: Serine/threonine-protein kinase 25 (Homo sapiens) (UniProt O00506); details: Compound concentration 1000.0 nM
[42] = molecular target: Mu-type opioid receptor (Homo sapiens) (UniProt P35372); details: Compound concentration 10.0 uM
[43] = molecular target: Histamine H1 receptor (Homo sapiens) (UniProt P35367); details: Compound concentration 10.0 uM
[44] = molecular target: Histamine H2 receptor (Homo sapiens) (UniProt P25021); details: Compound concentration 10.0 uM
[45] = molecular target: Beta-1 adrenergic receptor (Homo sapiens, UniProt P08588); details: Compound concentration 10.0 uM

CC(=O)C1=C(C)N(c2cccc(C(F)(F)F)c2)C(=O)N[C@@H]1c1ccc(C#N)nc1 [BAY-678]
residual activity [1]: 100% | residual activity [2]: 100% | residual activity [3]: 93.2% | residual activity [4]: 100% | residual activity [5]: 100% | residual activity [6]: 54.3% | residual activity [7]: 100% | residual activity [8]: 88.3% | residual activity [9]: 78.2% | residual activity [10]: 80.3% | residual activity [11]: 100% | residual activity [12]: 94.5% | residual activity [13]: 64.2% | residual activity [14]: 73.8% | residual activity [15]: 100% | residual activity [16]: 100% | residual activity [17]: 100% | residual activity [18]: 100% | residual activity [19]: 91.7% | residual activity [20]: 100% | residual activity [21]: 83.5% | residual activity [22]: 100% | residual activity [23]: 95.2% | residual activity [24]: 98.1% | residual activity [25]: 100% | residual activity [26]: 100% | residual activity [27]: 100% | residual activity [28]: 100% | residual activity [29]: 100% | residual activity [30]: 98.2% | residual activity [31]: 85.1% | residual activity [32]: 87.6% | residual activity [33]: 100% | residual activity [34]: 48.7% | residual activity [35]: 100% | residual activity [36]: 91.5% | residual activity [37]: 97.9% | residual activity [38]: 66.9% | residual activity [39]: 100% | residual activity [40]: 100% | residual activity [41]: 89.9% | inhibition [42]: -5.41% | inhibition [43]: 34.1% | inhibition [44]: 14.5% | inhibition [45]: 60%
